# Data from patent US5019582A, “Piperidine compounds and their preparation and use” (Novo Nordisk A/S, priority 1986, dated 1991).
# Counter-ions that a name gives are not always drawn.
# System: peripheral calcium uptake, e.g. in blood vessels and the heart
# Assay: not given
# Conditions: cited from earlier work
row,SMILES,activity against peripheral calcium uptake
1,COc1ccc([C@@H]2Sc3ccccc3N(CCN(C)C)C(=O)[C@@H]2OC(C)=O)cc1 [Diltiazem],have activity
2,COC(=O)C1=C(C)NC(C)=C(C(=O)OC)C1c1ccccc1[N+](=O)[O-] [Nifedipin],have activity
3,COc1ccc(CCN(C)CCCC(C#N)(c2ccc(OC)c(OC)c2)C(C)C)cc1OC (stereo not drawn) [Verapamil],have activity

# System: voltage operated calcium channels
# Assay: inhibition of depolarization-stimulated 45Ca uptake into brain synaptosomes
# Type: biochemical, male Wistar rat
# Conditions: inhibition of K+-stimulated 45Ca uptake, rat cerebral cortex synaptosomes (P2), 15 s incubation
# Excerpt: The pharmacological properties of the compounds of the invention can be illustrated by determining their capability to inhibit calcium uptake into brain synaptosomes.
# Depolarization of neuronal membranes leads to an opening of socalled `voltage operated calcium channels` (VOC) in the membranes which allows a massive influx of calcium from the extracellular space. A crude synaptosomal preparation (socalled P2 fraction) contains small vesicles surrounded by neuronal membrane and it is possible in such a preparation to study a depolarization-induced opening of VOC.
# A male Wistar rat is decapitated and the cerebral cortex removed and homogenized in 20 ml. of ice-cold 0.32 M sucrose using a glass homogenizer with a teflon pestle. All subsequent steps for isolation of synaptosomes are done at 0°-4° C. The homogenate is centrifuged at 1000×g for 10 min and the resulting supernatant is re-centrifuged at 18000×g for 20 min. This pellet (P2) is resuspended in 0.32 M sucrose (10 ml per g of original tissue) with a teflon pestle.
# The tubes are pre-incubated for 30 min on ice and then for 6 min at 37° C. in a water bath.
# The incubation is continued for 15 s.
# The amount of radioactivity on the filter disc is determined by liquid scintillation spectrometry.
# Test substances are dissolved in 10 ml of 48% ethanol at a concentration of 0.44 mg/ml. Dilutions are made in 48% ethanol to give final concentrations of 0.1, 0.3, 1, 3 and 0 10 μg/ml. Experiments are performed in duplicate. Controls for depolarized and nondepolarized samples are included in the assay and test substances are only tested in depolarized samples.
# The IC50 value is estimated from dose response curves.
row,SMILES,IC50
1,"CCCCCN1CC[C@@H](c2ccc(F)cc2)[C@H](COc2ccc3c(c2)OCO3)C1 (single isomer, unassigned)",1.5 µg/mL
2,"CCCCN1CC[C@@H](c2ccc(F)cc2)[C@H](COc2ccc3c(c2)OCO3)C1 (single isomer, unassigned)",1.9 µg/mL
3,"CCCCN1CC[C@@H](c2ccc(F)cc2)[C@H](COc2ccc(OC)cc2)C1 (single isomer, unassigned)",2.3 µg/mL
4,CCN1CC[C@@H](c2ccc(F)cc2)[C@H](COc2ccc(C(C)(C)C)cc2)C1.Cl (relative stereo) [trans-1-ethyl-4-(4-fluorophenyl)-3-(4-t-butylphenoxymethyl)piperidine hydrochloride],2.5 µg/mL
5,"C=CCN1CC[C@@H](c2ccc(F)cc2)[C@H](COc2ccc3c(c2)OCO3)C1 (single isomer, unassigned) [(-)--trans-4-(-4-fluorophenyl)-3-(3,4-methylenedioxyphenoxymethyl)-1-allyl-piperidine hydrochloride]",0.8 µg/mL
6,"COc1ccc(OC[C@@H]2CN(C(C)C)CC[C@H]2c2ccc(F)cc2)cc1.Cl (single isomer, unassigned) [(-)-trans-1-isopropyl-4-(4-fluorophenyl)-3-(4-methoxyphenoxymethyl)-piperidine hydrochloride]",4.3 µg/mL
7,"CCCCCCCCN1CC[C@@H](c2ccc(F)cc2)[C@H](COc2ccc3c(c2)OCO3)C1 (single isomer, unassigned) [(-)-trans-4-(-4-fluoropheny1)-3-(3,4-methylenedioxyphenoxymethyl)-1-octylpiperidine hydrochloride]",2.2 µg/mL
8,"CCCCCN1CC[C@@H](c2ccccc2)[C@H](COc2ccc3c(c2)OCO3)C1 (single isomer, unassigned)",2.4 µg/mL
9,"CCCCCN1CC[C@@H](c2ccc(F)cc2)[C@H](COc2ccc3c(c2)CCCC3)C1 (single isomer, unassigned)",0.4 µg/mL
